From patent US12478694B2, “H2O2-responsive crosslinking near-infrared molecular probe for tumor microenvironment and use therefor” (SOOCHOW UNIVERSITY, priority 2019, dated 2025)

Key:
4T1 cells [1] = test: Retention of the probe in 4T1 cells treated with hydrogen peroxide, confocal fluorescence; type: cell-based, mouse
Procedure: The 4T1 cells were first treated with 100 μM hydrogen peroxide for 15 min, and then the H2O2 responsive NIR molecular probe DATC prepared in Example 1 was diluted into the cell culture medium, and then added to the 4T1 cell culture dish and incubated (The probe concentration is 5 μM). The sulfhydryl group on the protein in 4T1 cells treated with hydrogen oxide will be oxidized to sulfenic acid. When the probe entered into the tumor cell, the group 3,5-dioxocyclohexane carboxylic acid will interact with sulfenic acid cross-linking forms a CS covalent bond, so that the probe molecule is firmly connected to the macromolecular protein in the tumor cell, thereby prolonging the residence time of the molecular probe in the tumor cell, and improving the imaging effect of the probe molecule.
Based on the method described in Example 2, 4T1 cells were seeded in a confocal small dish, 1.5×10^4 cells per well, and placed in an incubator for 24 hours. After diluting hydrogen peroxide to 100 μM with cell culture medium, it was added to a culture dish of 4T1 cells and incubated for 15 minutes, and then the culture medium was discarded. The H2O2 responsive NIR molecular probe prepared in Example 1 was diluted with a culture medium to a concentration of 5 μM, and then added to the 4T1 cell culture dish, and placed in a cell incubator for 8 hours. After incubation of the probe and 4T1 cell, added new cell culture medium and continue culturing in the incubator for 4h, 8h, 12h and 24h. Then stained the nucleus with Hoechst33342 dye solution, and observed the fluorescence in 4T1 cells at different times after hydrogen peroxide treatment with a laser confocal microscope. The fluorescent probe (TC) without 3,5-dioxocyclohexane carboxylic acid was used as a control example, and a unified experimental method was adopted.

4T1 cells [2] = test: Immunofluorescence of the probes in hydrogen peroxide treated 4T1 cells after re-culturing for 12 hours; type: cell-based, mouse; settings: 100 μM H2O2 15 min, 5 μM probe 8 h, re-culture 12 hours
Procedure: Based on the method described in Example 2, 4T1 cells were seeded in a confocal small dish, 1.5×10^4 cells per well, and placed in an incubator for 24 hours. After diluting hydrogen peroxide to 100 μM with cell culture medium, it was added to a culture dish of 4T1 cells and incubated for 15 minutes, and then the culture medium was discarded. The H2O2 responsive NIR molecular probe prepared in Example 1 was diluted with a culture medium to a concentration of 5 μM, and then added to a 4T1 cell culture dish, and placed in a cell incubator for 8 hours. After the incubation time of the probe and 4T1 cells is over, add new cell culture medium and continue culturing in the incubator for 12 hours. Subsequently, the cells were fixed with 4% paraformaldehyde at room temperature for 15 minutes, and then washed with PBS; secondly, 0.5% Trition-100 and 4T1 cells were incubated at room temperature for 5 minutes; the antibody anticysteine sulfenic acid was incubated at room temperature. After 1 hour, the antibody was washed with PBS, and then incubated at 37° C. for 30 minutes with goat anti-rabbit-Cy3. Finally, the nucleus was stained with Hoechst 33342 staining solution. […] The fluorescent probe (TC) without 3,5-dioxocyclohexane carboxylic acid was used as a control, and a unified experimental method was adopted.

4T1 = test: Cytotoxicity of the probe by MTT (thiazole blue) colorimetry; type: cell-based, mouse; settings: 4T1 cells
Procedure: (§1) After diluting the H2O2 responsive NIR molecular probe prepared in Example 1 with methanol to a concentration of 1 μM, an ultraviolet-visible absorption spectrometer and a steady-state/transient fluorescence spectrometer were used to measure the ultraviolet absorption spectrum and fluorescence of the probe. Spectrum: The cytotoxicity of the probe to 4T1 was investigated by MTT (thiazole blue) colorimetry.

[3] = system: 4T1 mouse breast cancer tumor in BALB/c/nu female nude mice; test: NIR fluorescence imaging of the probe at the tumor site in mice; type: in vivo; settings: intratumoral injection, 100 μM, 50 μL
Procedure: BALB/c/nu female nude mice inoculated with 4T1 mouse breast cancer cells were randomly divided into two groups with 5 mice in each group. After the tumor on the right forelimb of the mouse grows up, the probes DATC and TC are injected into the tumors of the two groups of nude mice by intratumoral injection, at a concentration of 100 μM (50 μL/each). Then put the probe-injected mice in the small animal IVIS Lumina XRMS live imaging system to observe the changes in the fluorescence intensity of the probe in the nude mouse tumor over time, and calculate the experimental group probe and the control group through the IVIS live imaging analysis software The fluorescence intensity of the probe at different time points at the tumor site in nude mice.

4T1 cells [4] = test: Co-localization of intracellular probe and intracellular mitochondria; type: cell-based, mouse; settings: 5 μM probe, incubated 12 hours
Procedure: Based on the method described in Example 2, 4T1 cells were seeded in a confocal small dish with 1.5×10^4 cells per well, placed in an incubator for 24 hours, and then the culture medium was discarded. The H2O2 responsive NIR molecular probe prepared in Example 1 was diluted with a culture medium to a concentration of 5 μM, and then added to a 4T1 cell culture dish, and placed in a cell incubator to incubate for 12 hours. After the probe and 4T1 cell incubation time was over, the cells were incubated with mitochondrial dye and Hoechst 33342 respectively, and the co-localization of the probe with mitochondria in 4T1 cells at the same time was observed using a confocal microscope.

[5] = Ultraviolet absorption spectrum and fluorescence spectrum of the probe; type: physicochemical; settings: probe diluted with methanol to 1 μM
Procedure: as §1

What does the source list for C[N+]1=C(/C=C/C=C/C=C2/N(CCCCCC(=O)NCCCn3cc(CNC(=O)[C@H](CCCCNC(=O)C4CC(=O)CC(=O)C4)NC(=O)CCC[P+](c4ccccc4)(c4ccccc4)c4ccccc4)nn3)c3ccc(S(=O)(=O)O)cc3C2(C)C)C(C)(C)c2cc(S(=O)(=O)O)ccc21 [DATC]?
red fluorescence intensity in 4T1 cells 8 hours after washing off the probe, versus control probe (4T1 cells [1]; 100 μM H2O2 15 min, 5 μM probe 8 h, re-culture 8 h): significantly stronger; fluorescence signal in 4T1 cells 24h later (4T1 cells [1]; 100 μM H2O2 15 min, 5 μM probe 8 h, re-culture 24 h): strong fluorescence signal; time the probe can stay in the cell (4T1 cells [1]; fluorescence quantitative data, H2O2-treated 4T1 cells, 5 μM probe): ≥ 24 h; content / fluorescent signal of probe in cells (4T1 cells [2]): relatively high; killing effect on the cells as the concentration increases (4T1): no killing effect on the cells; duration of the fluorescent signal at the tumor site [3]: 36 h; fluorescence signal of the probe at the tumor site at 2h ([3]; 2h): only slightly decreased; fluorescence signal of the probe at the tumor site at 12h ([3]; 12h): obvious fluorescence signal; co-localization of the probe with mitochondria (4T1 cells [4]): basically coincide; max absorption peak ([5]; UV absorption spectrum): 646 nm; maximum emission ([5]; fluorescence spectrum): 670 nm
